For eight molecules, TGI and GI50 results are on record in PubChem BioAssay (NCI).

“And” between values parts separate entries of the source, which are not always exact repeats. Equal entries are not always repeated.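 Where inhibition never reached the appropriate level, the endpoint shown equals the highest concentration tested. Otherwise, values were interpolated linearly from a five-concentration, 48-hour dose response in 96-well plates. At the GI50, growth is halved. At the TGI there is no net growth.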

Among the test systems are BT-549 breast; HCT-116 colon; A549 NSCLC; NCI-H522 lung; T-47D breast; NCI-H460 lung; SNB-19 CNS; K-562 leukemia; LOX IMVI melanoma; HOP-62 NSCLC.
Common to all, as to test: DTP human tumour cell line panel, 48 h

In general, TGI refers to the concentration giving total growth inhibition. Lower therefore signals greater sensitivity of the cells. Take `CC1=C(C(=O)Nc2ccccc2C)C(c2ccc(C3C(C(=O)Nc4ccccc4C)=C(C)NC(C)=C3C(=O)Nc3ccccc3C)cc2)C(C(=O)Nc2ccccc2C)=C(C)N1`: the TGI in the assay with BT-549 breast came out at 11.5 µM; in the assay with HCT-116 colon it was 7.17 µM; in the assay with A549 NSCLC, 27.8 µM; in the assay on NCI-H522 lung, 3.72 µM; with T-47D breast, 20.5 µM; in the assay on NCI-H460 lung, 24.9 µM. For the same molecule, the TGI was 29.4 µM in the assay on SNB-19 CNS, 25.4 µM in the assay with K-562 leukemia, 3.63 µM in the assay on LOX IMVI melanoma and 42.1 µM in the assay on HOP-62 NSCLC.

As a reminder, the GI50 is the concentration at which growth is held to half of that of the control. Take `COC(=O)[C@H]1C(=O)[C@@]2(C)[C@H]([C@H](OC(=O)c3ccccc3)[C@]3(O)C[C@H](OC(=O)[C@H](O)[C@@H](NC(=O)c4ccc(F)cc4)c4ccccc4)C(C)=C1C3(C)C)[C@]1(OC(C)=O)CO[C@@H]1C[C@@H]2O`: the GI50 was 0.011 µM with BT-549 breast; 0.00432 µM with HCT-116 colon; 0.0116 µM in the assay with A549 NSCLC; 0.0135 µM with NCI-H522 lung; 0.0106 µM with T-47D breast; 0.00739 µM in the assay on NCI-H460 lung. Further, the GI50 in the assay on SNB-19 CNS is 0.0166 µM; in the assay with K-562 leukemia, 0.00917 µM; in the assay on LOX IMVI melanoma it was 0.00974 µM; with HOP-62 NSCLC, 0.0112 µM. Moreover, the TGI in the assay with BT-549 breast is 0.833 µM; in the assay on HCT-116 colon it was > 25 µM; in the assay on A549 NSCLC it was > 25 µM; in the assay on NCI-H522 lung, > 7.4 µM; in the assay with T-47D breast it was > 25 µM; with NCI-H460 lung, 3.64 µM. The figures for the TGI with SNB-19 CNS, in the assay on LOX IMVI melanoma and with HOP-62 NSCLC were > 25 µM, > 25 µM and > 6.58 µM, respectively.

For the molecule `CNC(=O)c1c(NC(=O)c2ccc(C(F)(F)F)cc2)sc2c1CCC(=O)C2`, the GI50 was 0.366 µM in the assay on BT-549 breast; 0.188 µM in the assay on HCT-116 colon; 1.02 µM in the assay on A549 NSCLC; 0.251 µM with NCI-H522 lung; 0.305 µM with T-47D breast; 0.89 µM in the assay with NCI-H460 lung. The GI50 is 0.735 µM in the assay with SNB-19 CNS, 0.193 µM in the assay with K-562 leukemia, 0.361 µM in the assay with LOX IMVI melanoma and 2.42 µM in the assay on HOP-62 NSCLC. The TGI with BT-549 breast was found to be 3.72 µM; in the assay with HCT-116 colon, 1.4 µM; with A549 NSCLC, 8.49 µM; in the assay on NCI-H522 lung it was 1.92 µM; in the assay with T-47D breast, 2.38 µM; with NCI-H460 lung it was 4.19 µM. Further, the TGI in the assay with SNB-19 CNS was > 65.9 µM; with LOX IMVI melanoma, 2.27 µM; with HOP-62 NSCLC, 10.9 µM.

Take `COc1cccc(Cn2c(-c3nonc3N)nc3ccccc32)c1`: the GI50 with BT-549 breast is 0.365 µM; in the assay with HCT-116 colon it was 0.461 µM; in the assay on A549 NSCLC it was 0.625 µM; in the assay on NCI-H522 lung it was 0.245 µM; in the assay with T-47D breast it was 0.475 µM; in the assay on NCI-H460 lung, 0.378 µM. In addition, the GI50 with SNB-19 CNS is 0.907 µM; in the assay with K-562 leukemia it was 0.355 µM; in the assay with LOX IMVI melanoma, 0.547 µM; in the assay on HOP-62 NSCLC, 0.511 µM. Also, the TGI in the assay with BT-549 breast was 68.5 µM; in the assay on HCT-116 colon, > 100 µM; with A549 NSCLC, > 100 µM; with NCI-H522 lung, 0.688 µM; with T-47D breast, > 100 µM; in the assay on NCI-H460 lung it was > 34.6 µM. The TGI with SNB-19 CNS is > 100 µM; with K-562 leukemia, > 100 µM; in the assay on LOX IMVI melanoma, > 100 µM; in the assay on HOP-62 NSCLC, 48.3 µM.

For `COc1cc2c(F)nccc2cc1C(=O)N[C@@H](c1ccc(F)c(Cl)c1)[C@@H]1C[C@@H](O)CN1`, the GI50 in the assay with BT-549 breast is 0.487 µM; in the assay with HCT-116 colon it was 3.31 µM; in the assay on A549 NSCLC it was 3.14 µM; with NCI-H522 lung, 12 µM; in the assay with T-47D breast, 0.0552 µM; in the assay with NCI-H460 lung it was 0.623 µM. Moreover, the GI50 in the assay with SNB-19 CNS was 0.847 µM; with K-562 leukemia, 3.87 µM; with LOX IMVI melanoma, 10.2 µM; in the assay with HOP-62 NSCLC, 7.09 µM. Also, the TGI with BT-549 breast is 4.81 µM; in the assay on HCT-116 colon, 17.2 µM; with A549 NSCLC, 39.6 µM; in the assay on NCI-H522 lung, 26.7 µM; in the assay on T-47D breast it was 21.3 µM; with NCI-H460 lung it was 15.8 µM. In addition, the TGI in the assay on SNB-19 CNS was 18.5 µM; with K-562 leukemia it was > 78.4 µM; in the assay with LOX IMVI melanoma it was 22.4 µM; in the assay with HOP-62 NSCLC, 25.3 µM.

With `CCN1C(=O)N(CC)C2C1NN=c1s/c(=C\c3ccccc3F)c(=O)n12` (configuration not stated), the GI50 with BT-549 breast is 0.0358 µM; with HCT-116 colon, 0.0333 µM; in the assay with A549 NSCLC, 0.0419 µM; in the assay on NCI-H522 lung it was 0.0192 µM; in the assay with T-47D breast it was 35.7 µM; with NCI-H460 lung, 0.0355 µM. Moreover, the GI50 was 0.0489 µM in the assay on SNB-19 CNS, 0.0301 µM with K-562 leukemia, 0.0411 µM with LOX IMVI melanoma and 0.0545 µM in the assay with HOP-62 NSCLC. Besides, the TGI in the assay with BT-549 breast was > 93.3 µM; with HCT-116 colon, 14.3 µM; in the assay with A549 NSCLC it was > 100 µM; in the assay on NCI-H522 lung, 1.3 µM; in the assay on T-47D breast, > 100 µM; in the assay with NCI-H460 lung, > 40.6 µM. Moreover, the TGI in the assay on SNB-19 CNS, in the assay on K-562 leukemia, in the assay with LOX IMVI melanoma and in the assay on HOP-62 NSCLC was > 100 µM in each case.

Consider `Cc1ncc(C(=O)Nc2ccc(CN3CCN(C)CC3)c(C(F)(F)F)c2)cc1C#Cc1cnc(N)c2cnccc12`, for which the GI50 in the assay on BT-549 breast is 0.841 µM; with HCT-116 colon it was 0.0434 µM; in the assay on A549 NSCLC, 0.202 µM; in the assay on NCI-H522 lung it was 0.0654 µM; in the assay with T-47D breast, 0.317 µM; in the assay on NCI-H460 lung, 0.0647 µM. In addition, the values for the GI50 in the assay on SNB-19 CNS, with LOX IMVI melanoma and in the assay with HOP-62 NSCLC were 0.684 µM, 0.0335 µM and 0.0854 µM, respectively. Further, the TGI in the assay with BT-549 breast was 10.7 µM; in the assay on HCT-116 colon it was 1.23 µM; in the assay on A549 NSCLC, 4.87 µM; in the assay with NCI-H522 lung, 13.1 µM; in the assay with T-47D breast, > 32.8 µM; in the assay with NCI-H460 lung, 1.54 µM. The TGI came to 17.6 µM in the assay on SNB-19 CNS, 1.29 µM in the assay on K-562 leukemia, 0.158 µM in the assay on LOX IMVI melanoma and 1.34 µM in the assay with HOP-62 NSCLC.

For `C[C@H](N)C(=O)N[C@@H]1[C@H]2C(=C(O)C[C@@H](O)[C@@H]2O)C(=O)O[C@]1(C)C(Cl)Cl`, the GI50 with BT-549 breast was 0.315 µM; in the assay with HCT-116 colon it was 0.205 µM; with A549 NSCLC, 0.271 µM; in the assay with NCI-H522 lung, 0.191 µM; in the assay with T-47D breast, 0.8 µM; with NCI-H460 lung, 0.146 µM. Further, the GI50 with SNB-19 CNS is 0.242 µM; in the assay on K-562 leukemia it was 0.229 µM and 0.233 µM; in the assay with LOX IMVI melanoma, 0.106 µM; with HOP-62 NSCLC, 0.297 µM. For the same molecule, the TGI is 2.57 µM and 1.53 µM with BT-549 breast; 1.85 µM and 1.33 µM in the assay on HCT-116 colon; 4.92 µM and 2.81 µM in the assay with A549 NSCLC; 0.955 µM and 0.755 µM in the assay on NCI-H522 lung; 7.69 µM and 4.18 µM with T-47D breast; 1.4 µM and 1.2 µM with NCI-H460 lung. The TGI in the assay with SNB-19 CNS is 6.02 µM and 1.72 µM; with K-562 leukemia, 9.75 µM and 2.84 µM; with LOX IMVI melanoma it was 0.454 µM and 0.675 µM; with HOP-62 NSCLC, 1.85 µM and 1.29 µM.
